Measured values published in patent US11389415B2, “Methods of regulating cannabinoid receptor activity-related disorders and diseases” (The United States of America as represented by the …, priority 2012, dated 2022).

Legend:
1321N1 cells = conditions: previously reported; read-out: Mitogenesis Inhibition in 1321N1 cells (IC50 nM)* (converted); cited from earlier work
HepG2 cells = test: [3H]-Thymidine incorporation assay in HepG2 cells; type: cell-based, human
Protocol: Maintenance and Treatment of Cell Lines. Human HepG2 hepatocarcinoma cells and human U87MG glioma cells (ATCC, Manassas, Va.) were maintained in EMEM medium supplemented with 1% L-glutamine, 1% sodium pyruvate, 1% penicillin/streptomycin, and 10% FBS (Hyclone, Logan, Utah). The human 1321N1 astrocytoma cells (European Collection of Cell Cultures, Sigma-Aldrich) were cultured in Dulbecco's modified Eagle's medium supplemented with 10% FBS and penicillin/streptomycin. All cell lines were cultured at 37° C. in 5% CO2, and the medium was replaced every 2-3 days.
Cells were seeded in 12-well plates at approximately 50,000 cells/well and incubated at 37° C. After 24 hours, the wells were rinsed with PBS and replaced with serum-free medium containing the appropriate concentration of the test compounds. After another 24-hour incubation at 37° C., 1 μCi of [^3H]-thymidine was added to each well and incubated at 37° C. for 16 hours. [^3H]-Thymidine incorporation into DNA was monitored after the cells were washed twice with PBS and then lysed in 600 μL of 0.1N NaOH for 30 minutes with shaking. The lysate was then mixed with 3 mL of liquid scintillation cocktail (Beckman Coulter, Inc., Brea, Calif.), and radioactivity was measured by liquid scintillation counting using Beckman Coulter LS6000IC Scintillation Counter. Data are shown as CPM incorporated compared to the control cells.

HepG2 and PANC-1 cells = test: Cell morphology and EGFR expression in HepG2 and PANC-1 cells; type: cell-based, human; conditions: 5 μM, 16 hours
Protocol: FIGS. 26A-26C show MNF interferes with inducible changes in cell morphology and expression of EGFR. […] White arrows show individual cells with filopodia. FIG. 26C, Cell lysates were prepared from similar studies and immunoblotted for EGFR. The membranes were reprobed for Hsp90, which served as a loading control.
(§1) Western blot analysis. For detection of intracellular signaling proteins, cells were lysed in radioimmunoprecipitation buffer containing EGTA and EDTA (Boston BioProducts, Ashland, Mass.). The lysis buffer contained a protease inhibitor cocktail (Sigma-Aldrich) and phosphatase inhibitor cocktail (Calbiochem, San Diego, Calif.). Equivalent amount of proteins (14 and 54 μg/well for PANC-1 and HepG2 cells, respectively) were separated on 4 to 12% precast gels (Invitrogen, Carlsbad, Calif.) using SDS-polyacrylamide gel electrophoresis under reducing conditions and then electrophoretically transferred onto polyvinylidene fluoride membrane (Invitrogen). Western blots were performed according to standard methods, which involved blocking in 5% non-fat milk and incubated with the antibody of interest, followed by incubation with a secondary antibody conjugated with the enzyme horseradish perodixase. The detection of immunoreactive bands was performed by chemiluminescence using the ECL Plus Western Blotting Detection System (GE Healthcare, Piscataway, N.J.). The quantification of bands was done by volume densitometry by using ImageJ software. The rabbit polyclonal antibodies against EGFR were obtained from Cell Signaling Technology, Inc. (Beverly, Mass.) and the monoclonal anti-Hsp90 was purchased from Santa Cruz Biotechnology, Inc. (Santa Cruz, Calif.).

GPR55 [1] = target: T1, GPR55 (Homo sapiens, UniProt Q9Y2T6); test: GPR55 internalization assay in hGPR55-HEK293 cells; type: cell-based; conditions: HEK293 stably expressing HA-tagged GPR55, 5 μM, 20 minutes
T1 sequence (Q9Y2T6 whole entry): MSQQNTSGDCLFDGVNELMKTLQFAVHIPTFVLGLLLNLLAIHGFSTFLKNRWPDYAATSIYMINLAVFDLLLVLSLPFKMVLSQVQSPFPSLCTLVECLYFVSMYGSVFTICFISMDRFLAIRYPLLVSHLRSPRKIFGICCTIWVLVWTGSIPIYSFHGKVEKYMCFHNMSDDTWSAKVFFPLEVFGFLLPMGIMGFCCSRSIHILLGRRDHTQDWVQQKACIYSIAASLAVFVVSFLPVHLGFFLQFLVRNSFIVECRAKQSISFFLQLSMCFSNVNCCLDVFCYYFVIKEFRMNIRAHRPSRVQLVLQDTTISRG
Protocol: GPR55 internalization assay. Endocytosis of GPR55 was observed following a previously described protocol with minor modifications (Henstridge et al., Br. J. Pharmacol. 160: 604-614, 2010). Briefly, hGPR55-HEK293 cells were grown on Lab-Tek II CC2 chamber slides (Thermo Scientific Nunc, Rochester, N.Y.) for 48 hours in regular media and then were serum starved for 1 hour. A preincubation with 1:1000 rabbit HA antibody (Covance, Md.) was performed in the presence of vehicle (0.1% DMSO) or 1 μM MNF in serum-free media for 45 minutes at 37° C. in the CO2 incubator. Cells were then washed extensively with PBS and treated with 5 μM 01602 in serum-free media for 20 minutes at 37° C. in the CO2 incubator. Subsequently, cells were washed three times, fixed in fresh 3.7% paraformaldehyde in PBS (10 min), and incubated with anti-rabbit Alexa Fluor 488 antibody (Molecular Probes, Eugene, Oreg.; 1:1000, 30 minutes). Cells were washed and fixed for a second time prior to permeabilization with 0.2% Triton X-100 (5 minutes). Incubation with anti-rabbit Alexa Fluor 568 antibody (Molecular Probes; 1:1000, 30 minutes) was carried out to determine the extent of internalized GPR55-HA antibody complex. […]

GPR55 [2] = target: T1, GPR55; test: Cellular uptake of TocriFluor T1117 in HepG2 cells; type: cell-based; set-up: host or cells: HepG2 hepatocarcinoma cells; conditions: HepG2, 0.25 μM, 30 minutes pretreatment
ERK1/2 = ERK1/2 phosphorylation (GPR55 downstream signaling) in HepG2 cells; type: cell-based, human; conditions: HepG2, 2.5 and 10 μM, 10 minutes
Protocol: as §1
Effect of MNF on O-1602-mediated increase in cell signaling. Serum-starved cells were pretreated in the absence or presence of 1 μM MNF for 10 minutes followed by a 10 minute incubation with 0, 2.5 and 10 μM O-1602 or 10% FBS, after which the levels of total ERK2 and phosphorylated forms of ERK1/2 (pErk1/2, Thr202/Tyr204), were determined by Western blotting technique. All primary antibodies were purchased from Cell Signaling Technology and used at a dilution recommended by the manufacturer.

SMILES: CCC(Cc1ccc(O)cc1)NCC(O)c1cc(O)cc(O)c1 [(R,R′)-ethylFen, (R,R′)-ethylfenoterol]
- IC50 (1321N1 cells): 1.44 ± 0.27 nM
- % Change in HepG2 cells ([3H]-thymidine incorporation) (HepG2 cells; at 10 μM): (R,R′): 50.90 at 10 μM %

SMILES: C[C@@H](Cc1ccc(O)cc1)NC[C@@H](O)c1cc(O)cc(O)c1 [(S,S′)-Fen, fenoterol]
- IC50 (1321N1 cells): 184 nM
- % Change in HepG2 cells ([3H]-thymidine incorporation) (HepG2 cells; 1 μM, 24 h): 9.7%

SMILES: C=C(C)[C@@H]1CCC(C)=C[C@H]1c1c(C)cc(O)cc1O [O-1602, reference compound]
- EGFR levels (HepG2 and PANC-1 cells): led to higher EGFR levels when compared to vehicle-treated cells
- GPR55 internalization (GPR55 [1]): led to marked endocytosis of HA-tagged GPR55
- reduction in the amount of T1117 incorporated (GPR55 [2]): 47%
- delay in cellular accumulation of T1117 (GPR55 [2]; 10 nM T1117): 12.5 min
- ERK phosphorylation (ERK1/2): dose-dependently increased ERK phosphorylation
